Source: patent US20230416203A1, “POTENT AND SELECTIVE INHIBITORS OF THE CALCIUM-ACTIVATED POTASSIUM CHANNEL, KCA3.1, FOR USE AS PLATFORM THERAPEUTICS” (priority 2020, published 2023)
Like-named read-outs stand apart in the source and are kept apart here.

What was measured:
KCa3.1 channel = KCa3.1 channel (Homo sapiens, UniProt O15554); experiment: KCa3.1 patch-clamp (QPatch HTX automated and manual); assay type: cell-based
Procedure: The effect of the compounds on KCa3.1 channel was evaluated by patch-clamp using a QPatch HTX automated electrophysiology platform (Sophion, Denmark) and by manual patch-clamp (HEKA, Germany). For QPatch experiments, the giga-seal and whole-cell requirements for the automated electrophysiology were the following: minimum seal resistance=0.1 GQ; holding potential=−80 mV; holding pressure=−20 mbar; and positioning pressure=−70 mbar. For KCa3.1 experiment, the external solution was Na^+-Ringer's and contained (in mM): 160 NaCl; 10 HEPES; 4.5 KCl; 1 MgCl2; and 2 CaCl2 (pH=7.4, 310 mOsm). […] Following establishment of the whole-cell configuration, cells were held at −80 mV and KCa3.1 currents elicited by a voltage protocol that held at −80 mV for 20 ms, stepped to −120 mV for 20 ms, ramped from −120 to +40 mV over 200 ms, and then stepped back to −120 mV for 20 ms. This pulse protocol was applied every 10 s. Current slopes (in amperes per second) were measured using the Sophion QPatch software and exported to Microsoft Excel and GraphPad Prism 7 for analysis. […] Curve-fitting and IC50 determination were performed using GraphPad Prism software.

CaV1.2 channel = CaV1.2 channel (Homo sapiens, UniProt Q13936); experiment: cell-based
Chain of CaV1.2 channel (Q13936 whole entry): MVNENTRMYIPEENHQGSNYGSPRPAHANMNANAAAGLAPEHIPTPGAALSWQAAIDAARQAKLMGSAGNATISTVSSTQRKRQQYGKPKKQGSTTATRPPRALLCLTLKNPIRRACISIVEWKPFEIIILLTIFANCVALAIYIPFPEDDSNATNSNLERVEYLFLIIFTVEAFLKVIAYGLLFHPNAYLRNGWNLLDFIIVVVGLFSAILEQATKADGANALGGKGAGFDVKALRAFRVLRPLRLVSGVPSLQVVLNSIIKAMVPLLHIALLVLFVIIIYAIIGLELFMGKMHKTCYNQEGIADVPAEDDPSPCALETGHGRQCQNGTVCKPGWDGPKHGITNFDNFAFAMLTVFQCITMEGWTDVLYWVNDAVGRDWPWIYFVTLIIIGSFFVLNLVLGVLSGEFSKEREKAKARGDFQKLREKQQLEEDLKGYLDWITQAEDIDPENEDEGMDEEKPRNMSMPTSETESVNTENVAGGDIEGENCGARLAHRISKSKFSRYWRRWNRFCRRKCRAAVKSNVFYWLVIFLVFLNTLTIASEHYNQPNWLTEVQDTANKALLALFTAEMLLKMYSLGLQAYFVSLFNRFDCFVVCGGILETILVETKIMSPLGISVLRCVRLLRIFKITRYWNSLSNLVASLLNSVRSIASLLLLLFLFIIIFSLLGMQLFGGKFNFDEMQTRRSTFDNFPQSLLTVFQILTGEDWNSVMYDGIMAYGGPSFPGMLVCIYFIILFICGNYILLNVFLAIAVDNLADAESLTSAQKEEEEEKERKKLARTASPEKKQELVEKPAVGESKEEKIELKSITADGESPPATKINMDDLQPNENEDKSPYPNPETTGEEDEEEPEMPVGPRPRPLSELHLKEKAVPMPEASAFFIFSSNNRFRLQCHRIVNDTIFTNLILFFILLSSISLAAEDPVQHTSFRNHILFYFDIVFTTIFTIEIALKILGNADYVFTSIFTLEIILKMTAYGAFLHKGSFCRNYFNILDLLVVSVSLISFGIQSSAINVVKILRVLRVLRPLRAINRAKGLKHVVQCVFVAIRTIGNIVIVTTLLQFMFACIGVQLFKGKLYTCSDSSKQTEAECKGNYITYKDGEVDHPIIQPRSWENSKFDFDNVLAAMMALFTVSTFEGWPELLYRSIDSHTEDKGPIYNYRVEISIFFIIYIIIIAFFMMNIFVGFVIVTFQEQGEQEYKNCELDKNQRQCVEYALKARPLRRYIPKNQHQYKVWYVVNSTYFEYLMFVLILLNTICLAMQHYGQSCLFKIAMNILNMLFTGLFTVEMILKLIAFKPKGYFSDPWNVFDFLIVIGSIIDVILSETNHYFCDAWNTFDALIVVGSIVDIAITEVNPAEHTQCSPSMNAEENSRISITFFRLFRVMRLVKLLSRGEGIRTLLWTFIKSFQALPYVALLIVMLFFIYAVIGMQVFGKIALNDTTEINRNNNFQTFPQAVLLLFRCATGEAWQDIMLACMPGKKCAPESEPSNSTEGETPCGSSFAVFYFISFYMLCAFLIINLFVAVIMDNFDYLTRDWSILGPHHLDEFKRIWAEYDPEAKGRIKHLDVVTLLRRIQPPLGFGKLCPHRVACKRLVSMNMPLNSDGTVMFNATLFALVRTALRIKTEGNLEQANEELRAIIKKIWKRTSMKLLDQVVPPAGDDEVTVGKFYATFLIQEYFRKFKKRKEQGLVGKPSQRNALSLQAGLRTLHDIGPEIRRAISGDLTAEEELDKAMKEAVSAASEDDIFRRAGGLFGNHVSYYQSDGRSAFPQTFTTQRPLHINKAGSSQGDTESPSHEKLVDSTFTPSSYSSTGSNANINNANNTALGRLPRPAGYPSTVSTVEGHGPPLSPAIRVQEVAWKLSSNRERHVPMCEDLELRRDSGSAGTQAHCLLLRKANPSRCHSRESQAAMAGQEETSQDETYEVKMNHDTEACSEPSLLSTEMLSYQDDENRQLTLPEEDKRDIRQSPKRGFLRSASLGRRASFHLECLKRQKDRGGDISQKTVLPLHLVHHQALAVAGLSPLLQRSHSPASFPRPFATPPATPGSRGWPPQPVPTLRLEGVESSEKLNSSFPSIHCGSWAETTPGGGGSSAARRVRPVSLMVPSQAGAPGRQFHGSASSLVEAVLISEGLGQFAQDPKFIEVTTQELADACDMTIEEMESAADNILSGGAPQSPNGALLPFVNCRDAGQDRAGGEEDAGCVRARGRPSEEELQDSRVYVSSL
Procedure: (§2) The external solution contained (in mM): 140 TEA-Cl; 2 MgCl2; 10 CaCl2; 10 HEPES; and 5 D-glucose (pH=7.4). The internal solution contained (in mM): 120 CsCl; 1 MgCl2; 10 HEPES; 10 EGTA; 0.3 Na2-GTP; and 4 Mg-ATP (pH=7.2). Following establishment of the whole-cell configuration, CaV1.2 current was recorded at holding membrane potential of −80 mV and then depolarized to +10 mV (test pulse was modified slightly due to lead IV test) for 0.3 s. This protocol was repeated at 20 s intervals to observe the effect of the test compounds on the peak of CaV1.2 current. Each cell was incubated with each test compound for 5 min, or until the current reached steady-state. The compounds were applied at multiple concentrations from low to high. Each cell acted as its own control. The decreases in the peak currents were used to determine the IC50 for CaV1.2 inhibition. Curve-fitting and IC50 calculations were performed using IGOR software.

[1] = target: CaV1.2 channel over KCa3.1 (Homo sapiens, UniProt Q13936); experiment: in vitro; conditions: pH 7.4
Chain of CaV1.2 channel over KCa3.1 (Q13936 whole entry): as above
Procedure: as §2

KV1.5 = target: T1, KV1.5 (Homo sapiens, UniProt P22460); experiment: Potassium channels patch-clamp (QPatch), KV1.5; assay type: cell-based; conditions: MEL Human KV1.5; read-out: KV1.5
T1 construct: expressed in transfected cells; host or cells: MEL
Procedure: (§1) The effects of Group 4 compounds on related potassium channels were evaluated by patch-clamp using a QPatch HTX automated electrophysiology platform (Sophion, Denmark). The giga-seal and whole-cell requirements for the automated electrophysiology were the following: minimum seal resistance=0.1 GO, holding potential=−80 mV, holding pressure=−20 mbar; and positioning pressure=−70 mbar.

KCa2.3 = target: T2, KCa2.3 (Homo sapiens, UniProt Q9UGI6); experiment: Potassium channels patch-clamp (QPatch), KCa2.3; assay type: cell-based; conditions: COS7 Human KCa2.3; read-out: KCa2.3
T2 construct: expressed in transfected cells; host or cells: COS7
T2 sequence (Q9UGI6 whole entry): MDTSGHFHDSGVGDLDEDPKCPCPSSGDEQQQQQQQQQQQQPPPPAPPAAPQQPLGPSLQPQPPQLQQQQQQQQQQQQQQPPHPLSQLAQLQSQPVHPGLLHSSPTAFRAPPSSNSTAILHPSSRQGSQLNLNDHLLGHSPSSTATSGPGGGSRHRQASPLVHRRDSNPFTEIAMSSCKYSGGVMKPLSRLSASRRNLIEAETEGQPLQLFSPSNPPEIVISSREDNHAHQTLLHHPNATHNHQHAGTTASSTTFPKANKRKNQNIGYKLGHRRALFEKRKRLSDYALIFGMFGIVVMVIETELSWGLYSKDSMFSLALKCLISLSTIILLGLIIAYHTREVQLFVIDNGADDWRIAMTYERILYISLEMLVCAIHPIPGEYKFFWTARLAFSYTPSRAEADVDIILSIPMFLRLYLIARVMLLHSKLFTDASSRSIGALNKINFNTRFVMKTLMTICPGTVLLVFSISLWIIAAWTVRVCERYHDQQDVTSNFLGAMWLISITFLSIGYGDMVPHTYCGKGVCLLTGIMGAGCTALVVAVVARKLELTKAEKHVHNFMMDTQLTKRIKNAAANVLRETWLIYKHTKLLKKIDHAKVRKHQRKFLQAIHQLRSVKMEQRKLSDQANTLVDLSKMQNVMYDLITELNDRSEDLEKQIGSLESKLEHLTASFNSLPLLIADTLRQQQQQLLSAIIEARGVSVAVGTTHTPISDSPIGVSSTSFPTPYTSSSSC
Procedure: as §1

KV1.3 = target: T3, KV1.3 (Mus musculus, UniProt P16390); experiment: Potassium channels patch-clamp (QPatch), KV1.3; assay type: cell-based; conditions: L929 Mouse KV1.3; read-out: KV1.3
T3 construct: expressed in transfected cells; host or cells: L929
T3 sequence (P16390 whole entry): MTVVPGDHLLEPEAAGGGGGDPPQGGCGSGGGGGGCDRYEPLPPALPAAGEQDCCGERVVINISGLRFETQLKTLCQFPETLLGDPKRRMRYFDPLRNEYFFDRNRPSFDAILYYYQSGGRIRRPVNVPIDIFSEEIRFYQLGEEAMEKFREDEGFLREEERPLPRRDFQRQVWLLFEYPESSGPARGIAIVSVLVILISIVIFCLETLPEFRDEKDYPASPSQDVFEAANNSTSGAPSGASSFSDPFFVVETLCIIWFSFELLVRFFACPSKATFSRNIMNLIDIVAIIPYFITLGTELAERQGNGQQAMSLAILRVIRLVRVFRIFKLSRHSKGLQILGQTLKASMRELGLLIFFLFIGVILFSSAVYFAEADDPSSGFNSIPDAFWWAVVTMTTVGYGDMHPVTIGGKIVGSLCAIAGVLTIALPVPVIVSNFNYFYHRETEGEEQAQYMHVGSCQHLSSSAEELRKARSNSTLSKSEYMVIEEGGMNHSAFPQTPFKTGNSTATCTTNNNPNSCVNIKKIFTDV
Procedure: as §1

KV11.1 (hERG) = target: T4, KV11.1 (hERG) (Homo sapiens, UniProt Q12809); experiment: Potassium channels patch-clamp (QPatch), KV11.1 (hERG); assay type: cell-based; conditions: CHO Human KV11.1; read-out: KV11.1 (hERG)
T4 construct: host or cells: CHO
T4 sequence (Q12809 whole entry): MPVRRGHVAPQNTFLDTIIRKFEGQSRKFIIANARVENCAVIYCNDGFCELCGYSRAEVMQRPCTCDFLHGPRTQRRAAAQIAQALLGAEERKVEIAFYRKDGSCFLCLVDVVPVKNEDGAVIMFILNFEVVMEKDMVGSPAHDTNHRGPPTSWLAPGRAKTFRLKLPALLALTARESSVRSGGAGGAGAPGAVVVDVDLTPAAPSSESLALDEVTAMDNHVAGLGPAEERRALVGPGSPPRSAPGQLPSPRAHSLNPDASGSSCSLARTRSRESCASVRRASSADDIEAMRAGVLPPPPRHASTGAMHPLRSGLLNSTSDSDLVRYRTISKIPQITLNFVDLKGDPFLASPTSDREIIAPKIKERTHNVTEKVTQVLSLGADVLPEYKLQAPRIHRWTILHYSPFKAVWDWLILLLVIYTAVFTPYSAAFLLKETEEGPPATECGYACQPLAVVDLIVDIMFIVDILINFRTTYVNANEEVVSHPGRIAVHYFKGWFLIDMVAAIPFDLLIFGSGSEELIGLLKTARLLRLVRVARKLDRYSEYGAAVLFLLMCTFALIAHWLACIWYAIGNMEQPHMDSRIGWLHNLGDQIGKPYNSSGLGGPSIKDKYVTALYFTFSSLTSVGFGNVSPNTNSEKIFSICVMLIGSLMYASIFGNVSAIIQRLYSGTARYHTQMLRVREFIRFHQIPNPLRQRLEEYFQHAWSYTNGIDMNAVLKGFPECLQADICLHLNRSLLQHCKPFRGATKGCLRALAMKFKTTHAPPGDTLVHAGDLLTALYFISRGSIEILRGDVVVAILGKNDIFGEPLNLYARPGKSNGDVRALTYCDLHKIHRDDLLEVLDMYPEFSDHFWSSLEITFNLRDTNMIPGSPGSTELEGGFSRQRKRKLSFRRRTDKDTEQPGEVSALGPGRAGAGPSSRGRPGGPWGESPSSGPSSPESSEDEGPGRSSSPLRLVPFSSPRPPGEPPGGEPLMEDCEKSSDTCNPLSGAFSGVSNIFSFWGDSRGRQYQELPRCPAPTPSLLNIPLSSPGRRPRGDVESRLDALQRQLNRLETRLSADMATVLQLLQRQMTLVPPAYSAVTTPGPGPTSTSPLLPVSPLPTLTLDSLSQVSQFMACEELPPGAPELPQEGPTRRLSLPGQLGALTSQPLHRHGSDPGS
Procedure: as §1

KCa2.2 = target: T5, KCa2.2 (Rattus norvegicus, UniProt P70604); experiment: Potassium channels patch-clamp (QPatch), KCa2.2; assay type: cell-based; conditions: HEK Rat KCa2.2; read-out: KCa2.2
T5 construct: expressed in transfected cells; host or cells: HEK
Procedure: as §1

KV1.2 = target: T6, KV1.2 (Rattus norvegicus, UniProt P63142); experiment: Potassium channels patch-clamp (QPatch), KV1.2; assay type: cell-based; conditions: B82 Rat KV1.2; read-out: KV1.2
T6 construct: expressed in transfected cells; host or cells: B82
Procedure: as §1

KV1.7 = target: T7, KV1.7 (Homo sapiens, UniProt Q96RP8); experiment: Potassium channels patch-clamp (QPatch), KV1.7; assay type: cell-based; conditions: CHL Human KV1.7; read-out: KV1.7
T7 construct: expressed in transfected cells; host or cells: CHL
Procedure: as §1

KV3.1 = target: T8, KV3.1 (Mus musculus, UniProt P15388); experiment: Potassium channels patch-clamp (QPatch), KV3.1; assay type: cell-based; conditions: L929 Mouse KV3.1; read-out: KV3.1
T8 construct: expressed in transfected cells; host or cells: L929
T8 sequence (P15388 1-511): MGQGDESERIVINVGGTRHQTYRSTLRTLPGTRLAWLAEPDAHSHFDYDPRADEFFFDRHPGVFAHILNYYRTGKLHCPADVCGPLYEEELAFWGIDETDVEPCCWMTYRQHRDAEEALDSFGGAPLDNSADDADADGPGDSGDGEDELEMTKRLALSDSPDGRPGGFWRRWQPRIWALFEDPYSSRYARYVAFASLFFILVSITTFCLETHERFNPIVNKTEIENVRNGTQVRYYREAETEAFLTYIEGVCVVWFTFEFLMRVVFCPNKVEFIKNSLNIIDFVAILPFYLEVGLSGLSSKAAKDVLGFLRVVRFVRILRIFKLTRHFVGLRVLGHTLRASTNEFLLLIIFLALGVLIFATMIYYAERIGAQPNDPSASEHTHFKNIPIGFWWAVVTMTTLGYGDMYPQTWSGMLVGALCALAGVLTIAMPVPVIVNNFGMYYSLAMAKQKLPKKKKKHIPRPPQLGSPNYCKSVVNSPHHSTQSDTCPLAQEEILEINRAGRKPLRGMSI
Procedure: as §1

KV1.1 = target: T9, KV1.1 (Mus musculus, UniProt P16388); experiment: Potassium channels patch-clamp (QPatch), KV1.1; assay type: cell-based; conditions: L929 Mouse KV1.1; read-out: KV1.1
T9 construct: expressed in transfected cells; host or cells: L929
Procedure: as §1

KV4.2 = target: T10, KV4.2 (Rattus norvegicus, UniProt Q63881); experiment: Potassium channels patch-clamp (QPatch), KV4.2; assay type: cell-based; conditions: LTK Rat KV4.2; read-out: KV4.2
T10 construct: expressed in transfected cells; host or cells: LTK
T10 sequence (Q63881 1-630): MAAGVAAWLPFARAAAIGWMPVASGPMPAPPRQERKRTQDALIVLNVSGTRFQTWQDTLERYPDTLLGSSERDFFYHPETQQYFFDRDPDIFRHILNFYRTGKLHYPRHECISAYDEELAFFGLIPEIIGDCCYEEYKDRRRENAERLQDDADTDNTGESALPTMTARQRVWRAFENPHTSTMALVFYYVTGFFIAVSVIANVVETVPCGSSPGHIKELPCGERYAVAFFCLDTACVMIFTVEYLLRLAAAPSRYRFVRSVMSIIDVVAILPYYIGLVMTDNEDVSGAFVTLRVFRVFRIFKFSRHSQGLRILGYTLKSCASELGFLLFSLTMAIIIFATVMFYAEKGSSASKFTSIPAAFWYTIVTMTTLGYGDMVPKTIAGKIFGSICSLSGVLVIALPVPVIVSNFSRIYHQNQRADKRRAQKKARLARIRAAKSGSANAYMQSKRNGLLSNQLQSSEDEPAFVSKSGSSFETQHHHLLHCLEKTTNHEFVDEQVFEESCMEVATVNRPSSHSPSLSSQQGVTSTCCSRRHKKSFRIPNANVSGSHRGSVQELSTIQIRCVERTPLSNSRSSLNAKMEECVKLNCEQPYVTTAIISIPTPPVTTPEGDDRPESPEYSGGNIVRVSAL
Procedure: as §1

KCa1.1 = target: T11, KCa1.1 (Homo sapiens, UniProt Q12791); experiment: Potassium channels patch-clamp (QPatch), KCa1.1; assay type: cell-based; conditions: HEK Human KCa1.1; read-out: KCa1.1
T11 construct: expressed in transfected cells; host or cells: HEK
Procedure: as §1

KV1.4 = target: T12, KV1.4 (Homo sapiens, UniProt P22459); experiment: Potassium channels patch-clamp (QPatch), KV1.4; assay type: cell-based; conditions: LTK Human KV1.4; read-out: KV1.4
T12 construct: expressed in transfected cells; host or cells: LTK
Procedure: as §1

[2] = IC50 (nM), block of KCa3.1, patch clamp (Table 2)
[3] = block of KCa3.1, patch clamp (Table 2), read-out: IC50

| IC50 (KCa3.1 channel; [3]) [nM] | SMILES | IC50 (KCa3.1 channel; [2]) [nM] | IC50 (KCa3.1 channel; KCa3.1 IC50 (nM), Table 3) [nM] | IC50 (CaV1.2 channel) [µM] | selectivity ratio [1] | IC50 (KV1.5) [µM] | IC50 (KCa3.1 channel; KCa3.1, Table 5) [nM] | IC50 (KCa2.3) [µM] | IC50 (KV1.3) [µM] | IC50 (KV11.1 (hERG)) [µM] | other results |
| --- | --- | --- | --- | --- | --- | --- | --- | --- | --- | --- | --- |
| – | COC(=O)C1=C(C)NC(C)=C(C(C)=O)C1c1ccc(F)c(C(F)(F)F)c1 (stereo not shown) [Compound 57] | 16.8 ± 0.9 | 16.8 | 1.5 | 89 | – | – | – | – | – | – |
| – | COC(=O)C1=CNC=C(C(=O)OC)C1c1ccc(Cl)c(C(F)(F)F)c1 [Compound 113, Dimethyl 4-(4-chloro-3-(trifluoromethyl)phenyl)-1,4-dihydropyridine-3,5-dicarboxylate] | 5.7 ± 0.3 | 5.7 | 3.7 | 649 | > 10 | 5.7 ± 0.3 | > 10 | > 10 | > 10 | – |
| – | COC(=O)C1=CNC(C)=C(C(=O)OC)C1c1ccc(F)c(C(F)(F)F)c1 (stereo not shown) [Compound 104, Dimethyl 4-(4-fluoro-3-(trifluoromethyl)phenyl)-2-methyl-1,4-dihydropyridine-3,5-dicarboxylate] | – | 7.6 | 4.9 | 644 | > 10 | 7.6 ± 1.7 | 8 | > 10 | > 10 | IC50 (KCa2.2): > 10 µM; IC50 (KV1.2): > 10 µM; IC50 (KV1.7): > 10 µM; IC50 (KV3.1): > 10 µM; IC50 (KV1.1): > 10 µM; IC50 (KV4.2): > 10 µM; IC50 (KCa1.1): > 10 µM; IC50 (KV1.4): > 10 µM |
| – | COC(=O)C1=C(C)NC(C)=C(C(C)=O)C1c1cccc([N+](=O)[O-])c1 (stereo not shown) [Compound 79] | 142 ± 7.6 | 142 | 2 | 14 | – | – | – | – | – | – |
| 2300 | CCOC(=O)C1=C(C)NC(C)=C(C(=O)OC)C1c1cccc([N+](=O)[O-])c1 (stereo not shown) [Compound 08] | – | – | – | – | – | – | – | – | – | IC50 (KCa3.1 channel; Table 3, read-out: KCa3.1 IC50): 2300 nM |
| – | COC(=O)C1=C(C)NC(C)=C(C(=O)OC)C1c1ccc(Cl)c(C(F)(F)F)c1 [Compound 102] | 7 ± 0.2 | 7 | 2.4 | 342 | – | – | – | – | – | – |
| – | COC(=O)C1=CNC=C(C(=O)OC)C1c1cc(F)c(F)c(C(F)(F)F)c1 [Compound 110, Dimethyl 4-(3,4-difluoro-5-(trifluoromethyl)phenyl)-1,4-dihydropyridine-3,5-dicarboxylate] | 6.9 ± 1.3 | 6.9 | 9.1 | 1320 | > 10 | 6.9 ± 1.3 | > 10 | > 10 | > 10 | – |
| – | COC(=O)C1=CNC=C(C(=O)OC)C1c1cc(F)cc(C(F)(F)F)c1 [Compound 109] | 4.5 ± 0.2 | 4.5 | 10.6 | 2360 | > 10 | 4.5 ± 0.2 | > 10 | > 10 | > 10 | – |
| – | COC(=O)C1=CNC=C(C(=O)OC)C1c1cccc(C(F)(F)F)c1 [Compound 108, Dimethyl 4-(3-(trifluoromethyl)phenyl)-1,4-dihydropyridine-3,5-dicarboxylate] | 18.5 ± 1.1 | 18.5 | 22 | 1190 | > 10 | 18.5 ± 1.1 | 7 | > 10 | > 10 | IC50 (KCa2.2): > 10 µM; IC50 (KV1.2): > 10 µM; IC50 (KV1.7): > 10 µM; IC50 (KV3.1): > 10 µM; IC50 (KV1.1): > 10 µM; IC50 (KV4.2): > 10 µM; IC50 (KCa1.1): > 10 µM; IC50 (KV1.4): > 10 µM |
| > 10000 | COCCOC(=O)C1=C(C)NC(C)=C(C(=O)OC(C)C)C1c1cccc([N+](=O)[O-])c1 (stereo not shown) [Compound 04] | – | – | – | – | – | – | – | – | – | – |
| > 10000 | COC(=O)C1=C(C)NC(C)=C(C(=O)OCCN2CCN(C(c3ccccc3)c3ccccc3)CC2)C1c1cccc([N+](=O)[O-])c1 (stereo not shown) [Compound 03] | – | – | – | – | – | – | – | – | – | – |
| 4000 | COC(=O)C1=C(C)NC(C)=C(C(=O)OC)C1c1ccccc1[N+](=O)[O-] [Compound 07] | – | – | – | – | – | – | – | – | – | IC50 (KCa3.1 channel; Table 3, read-out: KCa3.1 IC50): 4000 nM |
| – | COCCOC(=O)C1=C(C)NC(C)=C(C(=O)OCCOC)C1c1cccc([N+](=O)[O-])c1 [Compound 06] | 9880 | – | – | – | – | – | – | – | – | – |
